How the values were obtained:
[1] = molecular target: T1, PolF (Streptomyces asoensis, UniProt C1IC29); details: Fe(II)2 form; L-Ile bidentate on Fe1; TEV-cleaved tagless protein, crystals grown with 15 mM L-Ile, pH 8.5
[2] = molecular target: T2, PolE (Streptomyces asoensis, UniProt C1IC30); details: Fe(II), BH4, O2, ascorbate; 50 mM HEPES pH 7.6, 25 °C
T2 construct: gene Saso_24180

[3] = molecular target: T1, PolF; details: Fe(II), O2, ascorbate; 50 mM HEPES pH 7.6, 25 °C (stopped-flow 5 °C, no ascorbate)

T2 sequence (C1IC30 entry or part of it): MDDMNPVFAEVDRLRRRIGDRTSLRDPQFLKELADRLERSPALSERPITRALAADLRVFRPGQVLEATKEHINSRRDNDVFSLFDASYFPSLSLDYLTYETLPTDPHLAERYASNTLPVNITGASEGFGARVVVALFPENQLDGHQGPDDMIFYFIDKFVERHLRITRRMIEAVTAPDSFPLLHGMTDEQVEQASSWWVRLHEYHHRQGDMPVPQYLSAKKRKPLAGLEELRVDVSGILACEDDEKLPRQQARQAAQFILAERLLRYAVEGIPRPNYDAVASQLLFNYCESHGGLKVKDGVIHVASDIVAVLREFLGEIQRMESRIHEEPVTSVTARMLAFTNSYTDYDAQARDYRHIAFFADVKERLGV

Row | SMILES | X-ray crystal structure of the complex [1] | LC-MS of dansylated desaturation product [2] | LC-MS of dansylated products; stopped-flow at 614 nm [3]
1 | CC[C@H](C)[C@H](N)C(=O)O [L-Ile] | The L-Ile substrate directly coordinates Fe1 in a bidentate fashion | PolE catalysed the desaturation of L-Ile in the presence of BH4 | 
2 | CC(C)[C@H](N)C(=O)O [L-Val] |  |  | the reaction with L-Val yielded a product with a −4-Da modification

— article PMC12614342, “Azetidine amino acid biosynthesis by non-haem iron-dependent enzymes” (Nature Chemistry, 2025)
